In one data set the test system is Plutella xylostella. Description: Activity against Plutella xylostella (sprayed cabbage plants). To be noted: 72 h, 400 ppm active ingredient, sprayed young cabbage plants, 3rd instar caterpillars, 3 days, read-out: percentage reduction in the population and in the feeding damage (% activity). The data set is classed as in vivo. As for the experimental part:
Activity Against Plutella xylostella Young cabbage plants are sprayed with an aqueous emulsion spray mixture comprising 400 ppm of active ingredient and, after the spray coating has dried on, populated with 10 caterpillars (3rd instar) of Plutella xylostella and introduced into a plastic container. 3 days later, the percentage reduction in the population and in the feeding damage (% activity) are determined by comparing the number of dead caterpillars and the feeding damage between the treated and untreated plants.

Another data set deals with Spodoptera littoralis. Description: Activity against Spodoptera littoralis (sprayed soya plants). The class given is in vivo. The following applies: 72 h, 400 ppm active ingredient, sprayed young soya plants, 1st instar caterpillars, 3 days, read-out: percentage reduction in the population and in the feeding damage (% activity). As for the experimental part:
Activity Against Spodoptera littoralis Young soya plants are sprayed with an aqueous emulsion spray mixture comprising 400 ppm of active ingredient and, after the spray coating has dried on, populated with 10 caterpillars (1st instar) of Spodoptera littoralis and introduced into a plastic container. 3 days later, the percentage reduction in the population and in the feeding damage (% activity) are determined by comparing the number of dead caterpillars and the feeding damage between the treated and untreated plants.

A further data set concerns Heliothis virescens. Description: Activity against Heliothis virescens (foliar application). The data set is classed as in vivo. To be noted: 144 h, 400 ppm active ingredient, sprayed young soya plants, 1st instar caterpillars, 6 days, read-out: percentage reduction in the population and in the feeding damage (% activity). On the procedure:
Activity Against Heliothis virescens (Foliar Application) Young soya plants are sprayed with an aqueous emulsion spray mixture comprising 400 ppm of active ingredient and, after the spray coating has dried on, populated with 10 caterpillars (1st instar) of Heliothis virescens and introduced into a plastic container. 6 days later, the percentage reduction in the population and in the feeding damage (% activity) are determined by comparing the number of dead caterpillars and the feeding damage between the treated and untreated plants.

One may read the melting point as the temperature, or range, at which the solid turns liquid.

A value given as a limit tells only on which side of the number the result lay.

Take `CNC(=O)c1cc2c([N+](=O)[O-])cccc2c(Cl)c1NC(=O)c1cc(C(F)(F)F)nn1-c1ncccc1Cl` [Compound T76.1]: the inhibition at 400 ppm in the data set with Plutella xylostella, in the data set on Spodoptera littoralis and in the data set with Heliothis virescens was over 80% each time. On to `CC1c2ccccc2C[C@H](C(=O)NC2CC2)[C@@H]1NC(=O)c1cc(C(F)(F)F)nn1-c1ncccc1Cl` (stereo partly shown) [Compound T73.207], for which the melting point was in the range of 192 to 194 °C. The same measure, in the same setting: as for `CC(C)NC(=O)c1c(NC(=O)c2cc(C(F)(F)F)nn2-c2ncccc2Cl)sc2c1CCCC2` [Compound T46.3], the figure is 246 to 248 °C. Turning to `CNC(=O)c1cc2cc(C#N)ccc2c(Cl)c1NC(=O)c1cc(C(F)(F)F)nn1-c1ncccc1Cl` [Compound T5.1], the inhibition at 400 ppm in the data set with Plutella xylostella, with Spodoptera littoralis and with Heliothis virescens was over 80% throughout. Regarding `Cc1c(NC(=O)c2cc(C(F)(F)F)nn2-c2ncccc2Cl)c(C(=O)NC(C)C)cc2c1OC(C)(C)O2`, the melting point was in the range of 256 to 258 °C.

Regarding `CC(C)NC(=O)c1cc2cc(Br)ccc2c(Br)c1NC(=O)c1cc(C(F)(F)F)nn1-c1ncccc1Cl` [Compound T9.3], the inhibition at 400 ppm in the data set with Plutella xylostella, in the data set on Spodoptera littoralis and with Heliothis virescens was over 80% each time. Regarding `CNC(=O)c1c(NC(=O)c2cc(C(F)(F)F)nn2-c2ncccc2Cl)nc2c(c1-c1cccc(Cl)c1)CCCC2` [Compound T53.1], the melting point is 183 to 185 °C. Compound `CC(C)NC(=O)[C@H]1Cc2ccccc2C(C)[C@H]1NC(=O)c1cc(C(F)(F)F)nn1-c1ncccc1Cl` (stereo partly shown) [Compound T73.3] had a melting point of 223 to 225 °C. On the same count and under the same terms, to `CNC(=O)c1c(NC(=O)c2cc(C(F)(F)F)nn2-c2ncccc2Cl)sc2c1CCCC2` [Compound T46.1] belongs 261 to 263 °C.

As for `CC(C)NC(=O)c1cc2cc(Cl)ccc2c(Cl)c1NC(=O)c1cc(C(F)(F)F)nn1-c1ncccc1Cl` [Compound T20.3], the inhibition at 400 ppm in the data set on Plutella xylostella, in the data set with Spodoptera littoralis and in the data set with Heliothis virescens was over 80% throughout. As for `CNC(=O)[C@H]1Cc2ccccc2C(C)[C@H]1NC(=O)c1cc(C(F)(F)F)nn1-c1ncccc1Cl` (stereo partly shown) [Compound T73.1], the melting point fell in the range of 205 to 207 °C. Consider `CNC(=O)[C@H]1Cc2ccccc2C[C@H]1NC(=O)c1cc(C(F)(F)F)nn1-c1ncccc1Cl` [Compound T72.1], for which the melting point was in the range of 226 to 228 °C. For `CNC(=O)c1cc2ccccc2c([N+](=O)[O-])c1NC(=O)c1cc(C(F)(F)F)nn1-c1ncccc1Cl` [Compound T78.1], the inhibition at 400 ppm in the data set with Plutella xylostella was over 80%. The compound `CC(C)NC(=O)c1c(NC(=O)c2cc(C(F)(F)F)nn2-c2ncccc2Cl)nc2c(c1-c1ccccc1)CCCCC2` [Compound T52.3] yielded a melting point of 269 to 270 °C. The same measure, in the same setting: as for `CC(C)NC(=O)c1cc2c(nc1NC(=O)c1cc(C(F)(F)F)nn1-c1ncccc1Cl)CCCC2` [Compound T50.3], the figure is 143 to 145 °C; as for `CNC(=O)c1sc2nsc(C)c2c1NC(=O)c1cc(C(F)(F)F)nn1-c1ncccc1Cl` [Compound T88.1], 264 to 266 °C. Consider `CCNC(=O)c1cc2cc(Br)ccc2c(Br)c1NC(=O)c1cc(C(F)(F)F)nn1-c1ncccc1Cl` [Compound T9.2], for which the inhibition at 400 ppm in the data set with Plutella xylostella, with Spodoptera littoralis and in the data set with Heliothis virescens was over 80% each time. Consider `CNC(=O)c1nc2ccccc2c(C)c1NC(=O)c1cc(C(F)(F)F)nn1-c1ncccc1Cl` [Compound T75.1], for which the inhibition at 400 ppm in the data set with Plutella xylostella, in the data set on Spodoptera littoralis and in the data set on Heliothis virescens was over 80% each time. Take `CCNC(=O)c1cc2cc(Br)ccc2c(Cl)c1NC(=O)c1cc(C(F)(F)F)nn1-c1ncccc1Cl` [Compound T2.2]: the inhibition at 400 ppm in the data set with Plutella xylostella, in the data set with Spodoptera littoralis and in the data set on Heliothis virescens was over 80% throughout.

For `COC1CCc2c(sc(NC(=O)c3cc(C(F)(F)F)nn3-c3ncccc3Cl)c2C(=O)NC(C)C)C1` (stereo not shown) [Compound T74.3], the melting point is 206 to 207 °C. Take `O=C(N[C@@H]1Cc2ccccc2C[C@@H]1C(=O)NC1CC1)c1cc(C(F)(F)F)nn1-c1ncccc1Cl` [Compound T72.207]: the melting point was 230 to 233 °C.

As to `CC(C)NC(=O)c1c(NC(=O)c2cc(C(F)(F)F)nn2-c2ncccc2Cl)nc2c(c1-c1cccc(Cl)c1)CCCC2` [Compound T53.3], the melting point was 259 to 260 °C. On the same count and under the same terms, to `CNC(=O)c1c(NC(=O)c2cc(C(F)(F)F)nn2-c2ncccc2Cl)sc2c1CCC(OC)C2` (stereo not shown) [Compound T74.1] belongs 133 to 135 °C; to `CC(C)NC(=O)c1c(NC(=O)c2cc(C(F)(F)F)nn2-c2ncccc2Cl)nc2c(c1-c1ccccc1)CCCC2` [Compound T51.3], 146 to 148 °C. On to `CNC(=O)c1c(NC(=O)c2cc(C(F)(F)F)nn2-c2ncccc2Cl)c(C)nc2ccccc12` [Compound T81.1], for which the inhibition at 400 ppm in the data set on Plutella xylostella and in the data set with Heliothis virescens was over 80% each time.

For `Cc1c(NC(=O)c2cc(C(F)(F)F)nn2-c2ncccc2Cl)c(C(=O)NC(C)C)nc2ccccc12` [Compound T75.3], the inhibition at 400 ppm in the data set on Plutella xylostella, with Spodoptera littoralis and in the data set on Heliothis virescens was over 80% in each case. Turning to `CNC(=O)c1sc2cccc(Cl)c2c1NC(=O)c1cc(C(F)(F)F)nn1-c1ncccc1Cl` [Compound T79.1], the inhibition at 400 ppm in the data set on Plutella xylostella and in the data set on Heliothis virescens was over 80% each time. `CNC(=O)c1cc2c(c(C)c1NC(=O)c1cc(C(F)(F)F)nn1-c1ncccc1Cl)OC(C)(C)O2` yielded a melting point of 242 to 244 °C. The same measure, in the same setting: to `Cc1snc2sc(C(=O)NC(C)C)c(NC(=O)c3cc(C(F)(F)F)nn3-c3ncccc3Cl)c12` [Compound T88.3] belongs 261 to 263 °C; to `CNC(=O)c1cc2c(c(Br)c1NC(=O)c1cc(C(F)(F)F)nn1-c1ncccc1Cl)OC(C)(C)O2`, 274 to 276 °C. Still for that read-out and setting: as for `CNC(=O)c1c(NC(=O)c2cc(C(F)(F)F)nn2-c2ncccc2Cl)nc2c(c1-c1ccccc1)CCCC2` [Compound T51.1], the figure is 165 to 168 °C. Take `CC(C)NC(=O)c1cc(Cl)c2ccccc2c1NC(=O)c1cc(C(F)(F)F)nn1-c1ncccc1Cl` [Compound T22.3]: in the data set with Plutella xylostella, the inhibition at 400 ppm was over 80%. In the case of `CC(C)NC(=O)[C@H]1Cc2ccccc2C[C@H]1NC(=O)c1cc(C(F)(F)F)nn1-c1ncccc1Cl` [Compound T72.3], the melting point is 229 to 232 °C. The same measure, in the same setting: to `CNC(=O)c1cc2c(c(Cl)c1NC(=O)c1cc(C(F)(F)F)nn1-c1ncccc1Cl)OC(F)(F)O2` belongs 265 to 267 °C. The same measure, in the same setting: as for `CNC(=O)c1c(NC(=O)c2cc(C(F)(F)F)nn2-c2ncccc2Cl)nc2c(c1-c1ccccc1)CCCCC2` [Compound T52.1], the figure is 211 to 213 °C; as for `CSCC(C)(C)NC(=O)[C@H]1Cc2ccccc2C[C@H]1NC(=O)c1cc(C(F)(F)F)nn1-c1ncccc1Cl` [Compound T72.273], 184 to 186 °C; as for `CNC(=O)c1cc2c(nc1NC(=O)c1cc(C(F)(F)F)nn1-c1ncccc1Cl)CCCC2` [Compound T50.1], 145 to 147 °C.

The values are drawn from patent publication US7812170B2, “Insecticides” (Syngenta Crop Protection, Inc., priority 2004, dated 2010).
